Results from ChEMBL document CHEMBL5212743, “Selectivity Literature for EUbOPEN Chemogenomics Library wave 3” (2023).
Blank lines part the entries; values can stand above or below the compound they belong to.

Legend:
[1] = target: ALK tyrosine kinase receptor (Homo sapiens, UniProt Q9UM73); test: Selectivity interaction (KinomScan Ambit) EUB0000622a ALK; conditions: at 10 µM
[2] = tested on: T1, Receptor-type tyrosine-protein kinase FLT3 (Homo sapiens), P36888 [D835Y]; test: Selectivity interaction (KinomScan Ambit) EUB0000622a FLT3; conditions: at 10 µM
T1 sequence (whole entry): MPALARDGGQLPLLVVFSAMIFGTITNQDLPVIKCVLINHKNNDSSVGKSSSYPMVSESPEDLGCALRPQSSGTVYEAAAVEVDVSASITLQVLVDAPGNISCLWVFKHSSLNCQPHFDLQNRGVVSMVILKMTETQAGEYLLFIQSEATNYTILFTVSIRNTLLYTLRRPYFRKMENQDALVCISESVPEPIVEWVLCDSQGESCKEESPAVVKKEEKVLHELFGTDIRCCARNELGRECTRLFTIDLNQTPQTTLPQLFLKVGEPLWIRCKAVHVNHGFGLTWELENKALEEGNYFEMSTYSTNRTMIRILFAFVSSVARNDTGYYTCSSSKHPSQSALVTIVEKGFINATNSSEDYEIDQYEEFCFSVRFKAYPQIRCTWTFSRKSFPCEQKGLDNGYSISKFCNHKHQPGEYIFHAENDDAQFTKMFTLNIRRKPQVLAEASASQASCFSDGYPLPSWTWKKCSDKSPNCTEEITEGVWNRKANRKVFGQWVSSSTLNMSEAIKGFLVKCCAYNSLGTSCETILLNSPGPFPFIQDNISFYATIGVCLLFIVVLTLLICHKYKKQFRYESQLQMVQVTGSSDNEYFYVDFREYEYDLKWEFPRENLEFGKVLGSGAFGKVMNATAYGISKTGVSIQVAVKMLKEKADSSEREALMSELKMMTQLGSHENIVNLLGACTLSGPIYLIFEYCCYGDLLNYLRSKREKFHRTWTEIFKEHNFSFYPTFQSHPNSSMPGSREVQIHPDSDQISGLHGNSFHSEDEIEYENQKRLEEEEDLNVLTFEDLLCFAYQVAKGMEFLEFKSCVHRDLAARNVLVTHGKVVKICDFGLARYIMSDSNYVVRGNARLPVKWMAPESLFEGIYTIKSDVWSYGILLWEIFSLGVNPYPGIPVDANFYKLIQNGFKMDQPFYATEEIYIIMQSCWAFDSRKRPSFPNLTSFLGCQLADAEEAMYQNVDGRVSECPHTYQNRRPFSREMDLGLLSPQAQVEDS

[3] = target: Myosin light chain kinase, smooth muscle (Homo sapiens) (UniProt Q15746); test: Selectivity interaction (KinomScan Ambit) EUB0000622a MYLK; conditions: at 10 µM
[4] = target: RAF proto-oncogene serine/threonine-protein kinase (Homo sapiens) (UniProt P04049); conditions: at 1 µM
Sequence of RAF proto-oncogene serine/threonine-protein kinase (Homo sapiens) (P04049 whole entry): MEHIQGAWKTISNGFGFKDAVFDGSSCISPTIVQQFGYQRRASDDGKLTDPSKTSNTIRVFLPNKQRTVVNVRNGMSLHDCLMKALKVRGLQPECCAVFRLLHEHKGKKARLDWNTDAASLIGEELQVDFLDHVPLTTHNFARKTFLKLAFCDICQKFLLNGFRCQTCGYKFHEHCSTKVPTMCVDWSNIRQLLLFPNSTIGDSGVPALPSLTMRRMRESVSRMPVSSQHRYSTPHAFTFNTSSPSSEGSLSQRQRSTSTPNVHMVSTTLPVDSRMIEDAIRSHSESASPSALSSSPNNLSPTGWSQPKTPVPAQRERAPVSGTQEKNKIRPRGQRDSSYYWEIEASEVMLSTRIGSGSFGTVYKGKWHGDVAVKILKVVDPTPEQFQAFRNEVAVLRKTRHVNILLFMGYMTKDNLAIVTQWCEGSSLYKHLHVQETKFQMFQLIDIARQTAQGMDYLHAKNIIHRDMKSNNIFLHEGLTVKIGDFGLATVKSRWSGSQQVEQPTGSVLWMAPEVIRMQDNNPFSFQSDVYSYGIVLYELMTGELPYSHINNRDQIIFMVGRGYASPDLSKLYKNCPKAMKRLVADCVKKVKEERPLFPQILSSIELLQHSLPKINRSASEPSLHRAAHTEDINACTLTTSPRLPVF

[5] = target: T2, Muscarinic acetylcholine receptor M2 (Homo sapiens) (UniProt P08172); test: Selectivity interaction (Eurofins-Panlabs panel) EUB0000295b CHRM2; conditions: at 10 µM
T2 sequence (whole entry): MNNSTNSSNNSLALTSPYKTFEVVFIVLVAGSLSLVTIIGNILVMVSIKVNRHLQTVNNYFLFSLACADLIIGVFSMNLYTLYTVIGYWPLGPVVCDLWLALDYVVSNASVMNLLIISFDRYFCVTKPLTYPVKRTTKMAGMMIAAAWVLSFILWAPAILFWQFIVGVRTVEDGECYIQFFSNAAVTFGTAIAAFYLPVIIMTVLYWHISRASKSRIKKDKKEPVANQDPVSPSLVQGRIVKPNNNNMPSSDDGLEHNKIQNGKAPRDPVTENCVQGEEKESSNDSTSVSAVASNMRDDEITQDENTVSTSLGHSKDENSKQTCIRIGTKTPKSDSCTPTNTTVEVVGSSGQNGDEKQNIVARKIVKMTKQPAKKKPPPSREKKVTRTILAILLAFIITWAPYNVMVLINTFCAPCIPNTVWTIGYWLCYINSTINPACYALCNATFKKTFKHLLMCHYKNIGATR

[6] = target: T3, Phosphatidylinositol 4,5-bisphosphate 3-kinase catalytic subunit delta isoform (Homo sapiens) (UniProt O00329); test: Selectivity interaction (KinomeScan (DiscoverX)) EUB0000295b PIK3CD; conditions: at 1 µM
T3 sequence (whole entry): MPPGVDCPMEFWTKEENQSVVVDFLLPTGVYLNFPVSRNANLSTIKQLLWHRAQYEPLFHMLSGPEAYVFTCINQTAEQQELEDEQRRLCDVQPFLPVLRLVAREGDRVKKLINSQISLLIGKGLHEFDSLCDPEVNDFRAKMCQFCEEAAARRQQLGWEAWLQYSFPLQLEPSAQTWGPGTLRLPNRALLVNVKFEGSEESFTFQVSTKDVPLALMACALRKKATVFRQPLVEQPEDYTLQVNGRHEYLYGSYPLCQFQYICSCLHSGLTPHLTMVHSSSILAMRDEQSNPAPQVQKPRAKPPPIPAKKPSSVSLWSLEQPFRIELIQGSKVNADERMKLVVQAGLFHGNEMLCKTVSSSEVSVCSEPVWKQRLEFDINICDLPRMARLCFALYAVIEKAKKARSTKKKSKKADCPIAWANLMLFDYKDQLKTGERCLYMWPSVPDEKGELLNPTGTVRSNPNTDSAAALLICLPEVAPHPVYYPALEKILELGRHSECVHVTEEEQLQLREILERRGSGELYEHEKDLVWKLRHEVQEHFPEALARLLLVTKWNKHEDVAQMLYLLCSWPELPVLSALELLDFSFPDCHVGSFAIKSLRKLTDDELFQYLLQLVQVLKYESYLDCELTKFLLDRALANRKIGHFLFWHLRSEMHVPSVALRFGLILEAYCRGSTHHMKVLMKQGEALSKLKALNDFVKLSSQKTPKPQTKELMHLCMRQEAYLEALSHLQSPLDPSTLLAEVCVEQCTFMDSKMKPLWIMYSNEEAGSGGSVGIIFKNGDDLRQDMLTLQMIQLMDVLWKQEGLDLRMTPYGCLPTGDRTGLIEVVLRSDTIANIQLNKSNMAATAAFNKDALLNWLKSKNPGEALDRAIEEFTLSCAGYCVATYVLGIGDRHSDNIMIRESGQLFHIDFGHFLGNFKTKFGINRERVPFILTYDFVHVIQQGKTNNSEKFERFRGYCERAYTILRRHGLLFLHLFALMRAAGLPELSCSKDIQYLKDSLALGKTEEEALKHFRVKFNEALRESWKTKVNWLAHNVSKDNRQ

[7] = target: SRSF protein kinase 2 (Homo sapiens) (UniProt P78362); test: Selectivity interaction (KinomeScan (DiscoverX)) EUB0000295b SRPK2; conditions: at 1 µM
Sequence of SRSF protein kinase 2 (Homo sapiens) (P78362 whole entry, looked up): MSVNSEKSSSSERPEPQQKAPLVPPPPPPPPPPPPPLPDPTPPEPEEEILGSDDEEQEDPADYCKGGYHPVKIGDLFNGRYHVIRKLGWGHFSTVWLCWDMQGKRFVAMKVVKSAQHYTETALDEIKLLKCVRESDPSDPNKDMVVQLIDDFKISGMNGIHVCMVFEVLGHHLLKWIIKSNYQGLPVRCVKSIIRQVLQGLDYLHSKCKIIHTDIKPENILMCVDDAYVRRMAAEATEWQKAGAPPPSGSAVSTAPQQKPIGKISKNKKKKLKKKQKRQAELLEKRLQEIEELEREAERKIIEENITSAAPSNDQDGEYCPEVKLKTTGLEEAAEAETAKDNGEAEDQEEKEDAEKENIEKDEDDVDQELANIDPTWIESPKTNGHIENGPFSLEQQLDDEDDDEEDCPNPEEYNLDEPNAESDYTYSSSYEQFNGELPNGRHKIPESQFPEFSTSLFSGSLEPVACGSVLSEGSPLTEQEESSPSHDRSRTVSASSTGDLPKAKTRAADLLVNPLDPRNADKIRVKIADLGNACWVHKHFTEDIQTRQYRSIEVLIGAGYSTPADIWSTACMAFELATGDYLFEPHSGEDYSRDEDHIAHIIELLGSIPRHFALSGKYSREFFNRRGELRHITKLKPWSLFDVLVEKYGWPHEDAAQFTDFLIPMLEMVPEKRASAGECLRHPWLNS

[8] = target: Tyrosine-protein kinase Fyn (Homo sapiens, UniProt P06241); test: Selectivity interaction (HotSpot assay platform (Reaction Biology)) EUB0000632a FYN; conditions: at 1 µM
Sequence of Tyrosine-protein kinase Fyn (P06241 2-537 limits assumed): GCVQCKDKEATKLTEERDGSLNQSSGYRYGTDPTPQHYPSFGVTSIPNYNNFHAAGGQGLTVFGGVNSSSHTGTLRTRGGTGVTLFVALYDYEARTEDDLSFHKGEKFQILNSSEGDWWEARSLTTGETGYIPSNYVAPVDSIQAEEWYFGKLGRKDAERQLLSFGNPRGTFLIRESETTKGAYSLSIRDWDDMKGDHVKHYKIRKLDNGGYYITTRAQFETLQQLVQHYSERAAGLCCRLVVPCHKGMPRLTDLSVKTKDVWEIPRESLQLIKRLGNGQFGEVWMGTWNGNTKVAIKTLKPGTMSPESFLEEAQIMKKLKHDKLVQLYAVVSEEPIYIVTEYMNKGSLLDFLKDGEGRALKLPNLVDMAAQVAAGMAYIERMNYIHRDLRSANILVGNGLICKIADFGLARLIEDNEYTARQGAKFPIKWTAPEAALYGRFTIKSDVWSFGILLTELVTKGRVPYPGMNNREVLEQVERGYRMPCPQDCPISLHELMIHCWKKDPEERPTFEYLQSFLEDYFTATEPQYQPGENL

[9] = target: Vascular endothelial growth factor receptor 2 (Homo sapiens, UniProt P35968); test: Selectivity interaction (HotSpot assay platform (Reaction Biology)) EUB0000632a KDR; conditions: at 1 µM
Sequence of Vascular endothelial growth factor receptor 2 (P35968 whole entry): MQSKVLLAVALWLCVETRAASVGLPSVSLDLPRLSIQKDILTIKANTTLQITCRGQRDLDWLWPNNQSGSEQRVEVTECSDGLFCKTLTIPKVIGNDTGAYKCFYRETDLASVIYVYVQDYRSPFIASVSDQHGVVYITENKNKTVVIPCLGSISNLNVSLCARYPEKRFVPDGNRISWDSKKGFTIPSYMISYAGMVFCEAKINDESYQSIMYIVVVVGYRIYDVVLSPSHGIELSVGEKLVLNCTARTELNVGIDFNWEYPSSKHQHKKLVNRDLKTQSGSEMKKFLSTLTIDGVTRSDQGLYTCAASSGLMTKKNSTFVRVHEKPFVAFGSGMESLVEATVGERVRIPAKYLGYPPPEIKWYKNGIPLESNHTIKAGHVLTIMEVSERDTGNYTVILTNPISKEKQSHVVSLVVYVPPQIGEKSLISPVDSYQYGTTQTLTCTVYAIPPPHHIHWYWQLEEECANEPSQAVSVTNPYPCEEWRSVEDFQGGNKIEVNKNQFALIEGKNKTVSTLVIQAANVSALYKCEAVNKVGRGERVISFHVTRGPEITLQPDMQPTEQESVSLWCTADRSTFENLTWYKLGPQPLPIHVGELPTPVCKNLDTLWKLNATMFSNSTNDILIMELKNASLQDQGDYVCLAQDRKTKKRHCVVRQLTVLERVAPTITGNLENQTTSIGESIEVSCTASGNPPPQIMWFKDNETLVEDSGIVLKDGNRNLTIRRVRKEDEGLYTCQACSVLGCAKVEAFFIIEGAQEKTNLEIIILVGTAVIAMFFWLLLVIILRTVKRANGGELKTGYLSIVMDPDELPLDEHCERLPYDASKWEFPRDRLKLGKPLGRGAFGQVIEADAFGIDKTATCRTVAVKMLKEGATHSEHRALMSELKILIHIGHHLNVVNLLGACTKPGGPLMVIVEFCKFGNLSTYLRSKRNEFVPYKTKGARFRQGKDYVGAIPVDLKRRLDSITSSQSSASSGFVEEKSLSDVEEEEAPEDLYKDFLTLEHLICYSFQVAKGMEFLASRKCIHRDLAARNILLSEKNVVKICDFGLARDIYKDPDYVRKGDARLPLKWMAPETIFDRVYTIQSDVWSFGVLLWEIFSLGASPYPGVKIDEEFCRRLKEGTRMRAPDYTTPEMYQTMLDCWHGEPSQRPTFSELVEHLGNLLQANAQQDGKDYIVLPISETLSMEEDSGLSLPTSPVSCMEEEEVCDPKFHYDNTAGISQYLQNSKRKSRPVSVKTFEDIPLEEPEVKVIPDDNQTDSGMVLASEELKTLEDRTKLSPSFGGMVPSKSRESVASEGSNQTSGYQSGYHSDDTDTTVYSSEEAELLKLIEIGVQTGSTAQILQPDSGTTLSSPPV

[10] = target: Tyrosine-protein kinase ABL1 (Homo sapiens, UniProt P00519); test: Selectivity interaction (HotSpot assay platform (Reaction Biology)) EUB0000632a ABL1; conditions: at 1 µM
[11] = target: Protein-tyrosine kinase 6 (Homo sapiens) (UniProt Q13882); test: Selectivity interaction (HotSpot assay platform (Reaction Biology)) EUB0000632a PTK6; conditions: at 1 µM
[12] = target: Histone-lysine N-methyltransferase NSD3 (Homo sapiens) (UniProt Q9BZ95); test: Selectivity interaction (Methyltransferase panel) EUB0000198b NSD3; conditions: at 10 µM

Sequence of ALK tyrosine kinase receptor (Q9UM73 19-1620 limits assumed): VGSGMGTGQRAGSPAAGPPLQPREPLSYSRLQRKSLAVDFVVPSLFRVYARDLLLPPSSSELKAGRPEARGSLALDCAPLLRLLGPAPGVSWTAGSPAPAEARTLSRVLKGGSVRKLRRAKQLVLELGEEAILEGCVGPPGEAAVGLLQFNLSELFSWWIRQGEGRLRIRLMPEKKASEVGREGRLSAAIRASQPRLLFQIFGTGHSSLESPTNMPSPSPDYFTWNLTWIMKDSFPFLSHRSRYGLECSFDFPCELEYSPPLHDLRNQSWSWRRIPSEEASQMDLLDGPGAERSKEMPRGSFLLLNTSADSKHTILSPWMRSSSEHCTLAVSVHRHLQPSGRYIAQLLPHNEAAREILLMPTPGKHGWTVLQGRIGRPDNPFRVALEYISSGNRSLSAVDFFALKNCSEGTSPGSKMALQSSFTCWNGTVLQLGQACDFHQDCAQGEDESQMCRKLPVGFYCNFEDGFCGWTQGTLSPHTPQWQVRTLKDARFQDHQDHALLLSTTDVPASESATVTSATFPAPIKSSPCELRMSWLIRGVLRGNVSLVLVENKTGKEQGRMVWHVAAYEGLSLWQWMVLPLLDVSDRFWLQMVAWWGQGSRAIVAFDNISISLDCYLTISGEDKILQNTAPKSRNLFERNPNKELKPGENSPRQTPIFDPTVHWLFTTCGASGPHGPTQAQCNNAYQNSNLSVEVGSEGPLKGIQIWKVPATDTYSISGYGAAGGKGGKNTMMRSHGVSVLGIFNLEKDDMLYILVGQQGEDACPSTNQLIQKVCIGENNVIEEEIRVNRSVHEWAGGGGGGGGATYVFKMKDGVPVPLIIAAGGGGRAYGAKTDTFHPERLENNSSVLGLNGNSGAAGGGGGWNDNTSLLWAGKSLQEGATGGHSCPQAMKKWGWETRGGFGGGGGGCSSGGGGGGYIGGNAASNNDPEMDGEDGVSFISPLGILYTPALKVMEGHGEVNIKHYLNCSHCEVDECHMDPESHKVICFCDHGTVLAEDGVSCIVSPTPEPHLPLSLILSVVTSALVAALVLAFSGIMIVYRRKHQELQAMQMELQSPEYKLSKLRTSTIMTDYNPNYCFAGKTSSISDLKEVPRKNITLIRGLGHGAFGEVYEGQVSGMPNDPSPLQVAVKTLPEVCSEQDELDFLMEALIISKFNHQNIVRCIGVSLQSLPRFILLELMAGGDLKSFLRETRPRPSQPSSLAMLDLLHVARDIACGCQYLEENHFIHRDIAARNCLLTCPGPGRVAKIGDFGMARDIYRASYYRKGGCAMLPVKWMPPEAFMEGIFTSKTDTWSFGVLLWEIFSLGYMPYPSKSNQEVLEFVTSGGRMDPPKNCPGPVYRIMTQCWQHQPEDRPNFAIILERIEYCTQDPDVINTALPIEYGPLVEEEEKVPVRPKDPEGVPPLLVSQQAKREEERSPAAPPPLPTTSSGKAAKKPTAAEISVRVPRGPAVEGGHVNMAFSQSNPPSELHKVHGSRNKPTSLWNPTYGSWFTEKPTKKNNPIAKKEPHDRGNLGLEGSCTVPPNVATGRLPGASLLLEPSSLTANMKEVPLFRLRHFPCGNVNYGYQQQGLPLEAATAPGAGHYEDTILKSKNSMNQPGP

Compound: CC(=O)N1CCC(c2ccc(C(=O)NC(=N)N)cc2C(F)(F)F)CC1
% of inhibition [5]: 67%
% of control [6]: 34%
% of control [7]: 0%

Compound: CC(C)S(=O)(=O)c1ccc2nccc(Nc3ccc4scnc4c3)c2c1
% of inhibition [8]: 18%
% of inhibition [9]: 17%
% of inhibition [10]: 12%
% of inhibition [11]: 13%

Compound: O=C(NC[C@H](O)CN1CCc2ccccc2C1)c1ccnc(NC2CCC2)c1
% of inhibition [12]: 75%

The remaining lines, values ahead:

% of control [1]: < 50%
% of control [2]: < 50%
% of control [3]: < 50%
Compound: O=C(Nc1cccnc1)c1cc(-c2ccnc(F)c2)ccc1OCc1ccccc1

% of control [4]: 8%
Compound: OCCn1cc(-c2ccc3c(c2)CCC3=NO)c(-c2ccncc2)n1
